# Patent US7705148B2, “Processes for the preparation of 4-[[4-[[4-(2-cyanoethenyl)-2,6-dimethylphenyl]amino]-2-pyrimidinyl]amino]benzonitrile” (priority 2008, dated 2010)
# Assays:
# [1] = Cytotoxicity in mock-infected MT-4 cells (MTT); assay type: cell-based; details: human, OD 540 nm, read-out: CC50 (50% cytotoxic concentration)
# Description: (§1) A rapid, sensitive and automated assay procedure was used for the in vitro evaluation of anti-HIV agents. An […] T4-cell line, MT-4, which was previously shown (Koyanagi et al., Int. J. Cancer, 36, 445-451, 1985) to be highly susceptible to and permissive for HIV infection, served as the target cell line. Inhibition of the HIV-induced cytopathic effect was used as the end point. The viability of both HIV- and mock-infected cells was assessed spectrophotometrically via the in situ reduction of 3-(4,5-dimethylthiazol-2-yl)-2,5-diphenyltetrazolium bromide (MTT). The 50% cytotoxic concentration (CC50 in M) was defined as the concentration of compound that reduced the absorbance of the mock-infected control sample by 50%. The percent protection achieved by the compound in HIV-infected cells was calculated by the following formula:
# (§2) [formula] whereby (ODT)HIV is the optical density measured with a given concentration of the test compound in HIV-infected cells; (ODC)HIV is the optical density measured for the control untreated HIV-infected cells; (ODC)MOCK is the optical density measured for the control untreated mock-infected cells; all optical density values were determined at 540 nm. The dose achieving 50% protection according to the above formula was defined as the 50% inhibitory concentration (IC50 in M). The ratio of CC50 to IC50 was defined as the selectivity index (SI).
# [2] = test system: resistant mutants of HIV-1 (single and double mutants); assay: Replication inhibiting activity towards resistant mutants of HIV-1; assay type: cell-based; details: single and double mutants of HIV-1
# Description: Compound X was also tested for its replication inhibiting activity towards resistant mutants of HIV-1 (single and double mutants).
# [3] = test system: HIV; assay: Determination of anti-HIV activity: inhibition of HIV-induced cytopathic effect in MT-4 cells (MTT); assay type: cell-based, Human Immunodeficiency Virus
# Description: as §1, §2
compound,measurement,setting,value
"Cc1cc(/C=C/C#N)cc(C)c1Nc1ccnc(Nc2ccc(C#N)cc2)n1 [Compound X, 4-[[4-[[4-(2-cyanoethenyl)-2,6-dimethylphenyl]amino]-2-pyrimidinyl]amino]benzonitrile (E)]",CC50,[1],10 µM
same,replication inhibiting activity against resistant strains,[2],high activity
same,"SI (selectivity index, ratio of CC50 to IC50)",[3],"25,119"
